In ChEMBL document CHEMBL3885861, “Open TG-GATES”:

Organism: Rattus norvegicus
Test: Open TG-GATES - Regimen: Single
Format: toxicity, organism-based, Sprague-Dawley
Design: regimen Single, gender Male, age 6 weeks
Details: in vivo, iv, route intravenous injection; for MCV / Mono / Neu / PT / Plat / RBC / Ret / WBC / APTT / Bas / Eos / Fbg / Ht / Lym / Hb / MCH / MCHC: tissue Blood; for KIDNEY_L / KIDNEY_R / KIDNEY_TOTAL: tissue Kidney; for LIVER: tissue Liver
[1] = 30 mg/kg, 3 h, dose level Middle
[2] = 30 mg/kg, 3 h, tissue Plasma, dose level Middle
[3] = 30 mg/kg, 6 h, dose level Middle
[4] = 30 mg/kg, 6 h, tissue Plasma, dose level Middle
[5] = 30 mg/kg, 9 h, dose level Middle
[6] = 30 mg/kg, 9 h, tissue Plasma, dose level Middle
[7] = 30 mg/kg, 24 h, dose level Middle
[8] = 30 mg/kg, 24 h, tissue Plasma, dose level Middle
[9] = 100 mg/kg, 3 h, dose level High
[10] = 100 mg/kg, 3 h, tissue Plasma, dose level High
[11] = 100 mg/kg, 6 h, dose level High
[12] = 100 mg/kg, 6 h, tissue Plasma, dose level High
[13] = 100 mg/kg, 9 h, dose level High
[14] = 100 mg/kg, 9 h, tissue Plasma, dose level High
[15] = 100 mg/kg, 24 h, dose level High
[16] = 100 mg/kg, 24 h, tissue Plasma, dose level High

GENTAMICIN
MCV [1]: 62.9 fL | Mono [1]: 3.2% | Neu [1]: 16.4% | PT [1]: 16.2 s | Plat [1]: 131.2 x10_4/uL | RBC [1]: 626.2 x10_4/ul | Ret [1]: 6.5% | WBC [1]: 81.8 x10_2/uL | KIDNEY_L [1]: 0.9 g | KIDNEY_R [1]: 0.9 g | KIDNEY_TOTAL [1]: 1.8 g | LIVER [1]: 9.6 g | ALT [2]: 42.6 IU/L | AST [2]: 82.2 IU/L | CRE [2]: 0.1 mg/dL | DBIL [2]: 0.004 mg/dL | GLC [2]: 182 mg/dL | IP [2]: 8.1 mg/dL | K [2]: 4.3 meq/L | LDH [2]: 251.4 IU/L | PL [2]: 133.2 mg/dL | RALB [2]: 2.9 g/dL | TBIL [2]: 0.02 mg/dL | TC [2]: 62.4 mg/dL | TG [2]: 99.2 mg/dL | TP [2]: 5.3 g/dL | gamma-GTP [2]: 1.4 IU/L | TERMINAL_BW [3]: 210.3 g | APTT [3]: 23.2 s | Bas [3]: 0% | Eos [3]: 0.4% | Fbg [3]: 291.6 mg/dL | Ht [3]: 39.5% | Lym [3]: 77.6% | MCV [3]: 62 fL | Mono [3]: 3.4% | PT [3]: 16 s | Plat [3]: 119.1 x10_4/uL | RBC [3]: 636.4 x10_4/ul | Ret [3]: 6.3% | WBC [3]: 117 x10_2/uL | KIDNEY_L [3]: 0.9 g | KIDNEY_R [3]: 1 g | KIDNEY_TOTAL [3]: 1.9 g | LIVER [3]: 8.7 g | ALP [4]: 1316 IU/L | ALT [4]: 35 IU/L | AST [4]: 68.8 IU/L | BUN [4]: 9.4 mg/dL | CRE [4]: 0.1 mg/dL | DBIL [4]: 0.002 mg/dL | GLC [4]: 177.2 mg/dL | IP [4]: 9 mg/dL | K [4]: 4.3 meq/L | PL [4]: 139.4 mg/dL | RALB [4]: 3 g/dL | TBIL [4]: 0.024 mg/dL | TC [4]: 74.6 mg/dL | TG [4]: 84.4 mg/dL | TP [4]: 5.3 g/dL | gamma-GTP [4]: 1 IU/L | TERMINAL_BW [5]: 213 g | APTT [5]: 24 s | Bas [5]: 0% | Eos [5]: 1% | Fbg [5]: 294.6 mg/dL | Hb [5]: 13 g/dL | Ht [5]: 38.6% | Lym [5]: 77.4% | MCH [5]: 21 pg | MCHC [5]: 33.6% | Mono [5]: 3% | Neu [5]: 17.2% | PT [5]: 16.2 s | Plat [5]: 122.8 x10_4/uL | RBC [5]: 617.4 x10_4/ul | Ret [5]: 5.8% | WBC [5]: 109.5 x10_2/uL | KIDNEY_L [5]: 1 g | KIDNEY_R [5]: 1 g | KIDNEY_TOTAL [5]: 2 g | LIVER [5]: 8.5 g | ALP [6]: 1266.6 IU/L | ALT [6]: 34.4 IU/L | AST [6]: 72 IU/L | BUN [6]: 10.8 mg/dL | CRE [6]: 0.1 mg/dL | DBIL [6]: 0.002 mg/dL | GLC [6]: 175.2 mg/dL | IP [6]: 9.5 mg/dL | K [6]: 4.4 meq/L | LDH [6]: 134.6 IU/L | Na [6]: 144.2 meq/L | PL [6]: 134.2 mg/dL | RALB [6]: 2.9 g/dL | TBIL [6]: 0.022 mg/dL | TC [6]: 73.8 mg/dL | TG [6]: 49.4 mg/dL | TP [6]: 5.2 g/dL | gamma-GTP [6]: 1.6 IU/L | TERMINAL_BW [7]: 228.1 g | APTT [7]: 22.7 s | Bas [7]: 0% | Eos [7]: 0.8% | Fbg [7]: 295.4 mg/dL | Hb [7]: 12.9 g/dL | Ht [7]: 38% | Lym [7]: 76.6% | MCHC [7]: 34% | MCV [7]: 61.3 fL | Mono [7]: 4% | Neu [7]: 18% | PT [7]: 16.4 s | Plat [7]: 115.7 x10_4/uL | RBC [7]: 621.4 x10_4/ul | Ret [7]: 6% | WBC [7]: 112.3 x10_2/uL | KIDNEY_L [7]: 1 g | KIDNEY_R [7]: 1 g | KIDNEY_TOTAL [7]: 2 g | LIVER [7]: 10.2 g | ALP [8]: 1367.4 IU/L | ALT [8]: 41.4 IU/L | BUN [8]: 15.6 mg/dL | CRE [8]: 0.2 mg/dL | DBIL [8]: 0.004 mg/dL | IP [8]: 7.2 mg/dL | K [8]: 4.1 meq/L | LDH [8]: 137.2 IU/L | PL [8]: 153.2 mg/dL | RALB [8]: 3 g/dL | TBIL [8]: 0.02 mg/dL | TC [8]: 81.4 mg/dL | TG [8]: 101.6 mg/dL | TP [8]: 5.4 g/dL | gamma-GTP [8]: 1 IU/L | TERMINAL_BW [9]: 221.2 g | APTT [9]: 22.7 s | Bas [9]: 0% | Eos [9]: 1% | Fbg [9]: 284 mg/dL | Ht [9]: 37.3% | Lym [9]: 72% | MCV [9]: 63.9 fL | Mono [9]: 3% | Neu [9]: 23.3% | Plat [9]: 123.5 x10_4/uL | RBC [9]: 584 x10_4/ul | Ret [9]: 6.4% | WBC [9]: 86 x10_2/uL | KIDNEY_L [9]: 1 g | KIDNEY_R [9]: 1 g | KIDNEY_TOTAL [9]: 1.9 g | LIVER [9]: 9.9 g | ALP [10]: 1392.3 IU/L | ALT [10]: 41.3 IU/L | AST [10]: 82.7 IU/L | BUN [10]: 13 mg/dL | CRE [10]: 0.1 mg/dL | Ca [10]: 11 mg/dL | DBIL [10]: 0.0067 mg/dL | GLC [10]: 177.3 mg/dL | IP [10]: 7.9 mg/dL | K [10]: 4.1 meq/L | LDH [10]: 155.3 IU/L | PL [10]: 129.7 mg/dL | RALB [10]: 2.8 g/dL | TBIL [10]: 0.03 mg/dL | TC [10]: 69.3 mg/dL | TG [10]: 71.7 mg/dL | TP [10]: 5.2 g/dL | gamma-GTP [10]: 1 IU/L | TERMINAL_BW [11]: 211.7 g | APTT [11]: 24.2 s | Bas [11]: 0% | Eos [11]: 0.8% | Fbg [11]: 292 mg/dL | Ht [11]: 39.4% | Lym [11]: 74.2% | MCH [11]: 21 pg | MCHC [11]: 33.9% | MCV [11]: 61.9 fL | Mono [11]: 3.6% | Neu [11]: 20.6% | PT [11]: 15.9 s | Plat [11]: 126.2 x10_4/uL | RBC [11]: 637 x10_4/ul | Ret [11]: 6.6% | WBC [11]: 92.6 x10_2/uL | KIDNEY_L [11]: 0.9 g | KIDNEY_R [11]: 0.9 g | KIDNEY_TOTAL [11]: 1.8 g | LIVER [11]: 8.4 g | ALP [12]: 1407.2 IU/L | ALT [12]: 34.8 IU/L | AST [12]: 67.6 IU/L | CRE [12]: 0.1 mg/dL | DBIL [12]: 0.004 mg/dL | GLC [12]: 176.2 mg/dL | IP [12]: 9 mg/dL | K [12]: 4.7 meq/L | LDH [12]: 165.8 IU/L | PL [12]: 144.4 mg/dL | RALB [12]: 2.9 g/dL | TBIL [12]: 0.02 mg/dL | TG [12]: 98.6 mg/dL | TP [12]: 5.2 g/dL | gamma-GTP [12]: 1.2 IU/L | TERMINAL_BW [13]: 211.4 g | APTT [13]: 22.4 s | Bas [13]: 0% | Eos [13]: 0.8% | Fbg [13]: 296.4 mg/dL | Hb [13]: 12.9 g/dL | Ht [13]: 38.7% | Lym [13]: 80.6% | MCH [13]: 20.6 pg | MCHC [13]: 33.3% | MCV [13]: 61.9 fL | Mono [13]: 3.2% | Plat [13]: 120.1 x10_4/uL | RBC [13]: 625.2 x10_4/ul | Ret [13]: 6.4% | WBC [13]: 76.1 x10_2/uL | KIDNEY_L [13]: 0.9 g | KIDNEY_R [13]: 1 g | KIDNEY_TOTAL [13]: 1.9 g | LIVER [13]: 8.6 g | ALP [14]: 1221 IU/L | ALT [14]: 30.8 IU/L | AST [14]: 65.6 IU/L | BUN [14]: 12.8 mg/dL | CRE [14]: 0.1 mg/dL | Ca [14]: 11 mg/dL | DBIL [14]: 0.002 mg/dL | GLC [14]: 174.6 mg/dL | IP [14]: 9.4 mg/dL | K [14]: 4.7 meq/L | LDH [14]: 145.2 IU/L | PL [14]: 144 mg/dL | RALB [14]: 2.9 g/dL | TBIL [14]: 0.016 mg/dL | TC [14]: 77 mg/dL | TG [14]: 70.4 mg/dL | TP [14]: 5.3 g/dL | gamma-GTP [14]: 1 IU/L | TERMINAL_BW [15]: 225.5 g | APTT [15]: 23.2 s | Bas [15]: 0% | Eos [15]: 1% | Fbg [15]: 301.2 mg/dL | Hb [15]: 13.6 g/dL | Ht [15]: 39.5% | Lym [15]: 77.4% | MCHC [15]: 34.4% | MCV [15]: 60.8 fL | Mono [15]: 4.8% | PT [15]: 16.4 s | Plat [15]: 122.8 x10_4/uL | RBC [15]: 649.4 x10_4/ul | Ret [15]: 5.4% | WBC [15]: 96.8 x10_2/uL | KIDNEY_L [15]: 1 g | KIDNEY_R [15]: 1 g | KIDNEY_TOTAL [15]: 2 g | LIVER [15]: 9.6 g | ALP [16]: 1293.2 IU/L | ALT [16]: 37.8 IU/L | AST [16]: 66.4 IU/L | CRE [16]: 0.1 mg/dL | DBIL [16]: 0.002 mg/dL | GLC [16]: 186.4 mg/dL | IP [16]: 7.7 mg/dL | K [16]: 4.2 meq/L | LDH [16]: 159.2 IU/L | PL [16]: 162.4 mg/dL | RALB [16]: 3.1 g/dL | TBIL [16]: 0.018 mg/dL | TC [16]: 82.4 mg/dL | TG [16]: 110.2 mg/dL | TP [16]: 5.5 g/dL | gamma-GTP [16]: 1.2 IU/L
